This passage reports GI50 and TGI results from PubChem BioAssay (NCI).

Where “and” joins values, the source holds several entries; their conditions need not be identical. Equal entries are not always repeated.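 Exposure lasted 48 hours, with cells grown in 96-well plates and compounds tested at five concentrations. GI50: concentration for 50% inhibition of growth. Definition used: TGI = concentration required for complete inhibition of growth.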 *1 amine or outer side, *2 acyl side, *3 side chain or, on linkers, in order; H or OH if unused. Where a SMILES comes first, the peptide text is derived from it. Bridges are numbered along the chain shown (N, C = ends). Roman numbers before positions name the chains, in order. [ ]: non-standard residue; d: D form. Actinocin(9to1) = Cc1c2oc3c(C)ccc(C(=O)[*:1])c3nc-2c(C(=O)[*:2])c(N)c1=O; NMeV = CN[CH](C(=O)O)C(C)C; Sar = CNCC(=O)O

The experiment deals with MDA-MB-468 breast. As to the kind of experiment: NCI anticancer screen, dose series, 48 h.
Turning to `CCCCCCCCCCCC[N+](C)(C)Cc1ccccc1`, the GI50 was 0.508 µM and the TGI is 4.25 µM. With `Cc1cc(C(=O)Nc2cc(Oc3ccc4nc(NC(=O)C5CC5)cn4n3)ccc2C)n(C)n1`, the GI50 is 5.51 µM and the TGI is above 10 µM.

With `CCN1C(=O)N(CC)C2C1NN=c1s/c(=C\c3cccs3)c(=O)n12` (centres undefined), the GI50 is 0.113 µM and the TGI is above 100 µM. Taken in the same sequence, the figures for `C=C(C)[C@@H]1CC[C@]2(COCCCNCCCN)CC[C@]3(C)[C@H](CC[C@@H]4[C@@]5(C)CC[C@H](OCCCN)C(C)(C)[C@@H]5CC[C@]43C)[C@@H]12` were 0.882 µM and 1.74 µM. With `CCC#CC[C@H](O)C/C=C1/C(=O)C=C[C@@H]1C/C=C\CCCC(=O)OC`, the GI50 is 1.23 µM and the TGI turned out to be 3.98 µM. As to `CN(C)c1ccc(C(=N)c2ccc(N(C)C)cc2)cc1`, the GI50 was 0.509 µM and 0.759 µM; the TGI is 3 µM and 3.52 µM. For the molecule `c1cc(CN2CCCNCCNCCCNCC2)ccc1CN1CCCNCCNCCCNCC1`, the GI50 was above 100 µM and the TGI was above 100 µM. On to `CCN(CC)CCCOc1ccc2ncnc(Nc3ccc(Oc4cccc(C(F)(F)F)c4)c(Cl)c3)c2c1`, for which the GI50 was 0.879 µM and the TGI was 2.33 µM. In the case of `COc1cccc(Sc2ccc([N+](=O)[O-])c3no[n+]([O-])c23)c1`, the GI50 was 2.42 µM and the TGI amounted to 7.61 µM. The matching figures for `C[C@]12CC[C@@H]3c4ccc(O)cc4CC[C@H]3[C@@H]1CC[C@@H]2NS(=O)(=O)c1cccc(Cl)c1`: 1.98 µM and 8.12 µM.

Turning to `CC/C=C\C[C@H](O)C/C=C1/C(=O)C=C[C@@H]1C/C=C\CCCC(=O)OC(C)C`, the GI50 is 1.29 µM and the TGI stood at 3.06 µM. The matching figures for `C=CCNc1nc(O)c(/C=C2\C=Nc3ncccc32)s1`: 1.92 µM and 4.13 µM.

In the case of `CCCCCCCN(CCCCCCC)C(=N)c1ccnc2ccccc12`, the GI50 is 1.7 µM and the TGI was 3.37 µM. As for `CC(CN(C)C)S(=O)(=O)c1ccc(-c2cnc(N)c(C(=O)Nc3ccccc3)n2)cc1` (centres undefined), the GI50 is 4.98 µM and the TGI was 20.4 µM.

As for `C=C1C(=O)O[C@H]2[C@H]1CC/C(Cn1cc(Cc3c[nH]c4ccccc34)nn1)=C\CC[C@@]1(C)O[C@@H]21`, the GI50 is 1.45 µM and the TGI was 3.88 µM. The matching figures for `c1ccc2cc(Cn3cc[n+](Cc4ccc5ccccc5c4)c3)ccc2c1`: 0.25 µM and 0.849 µM. On to `C=C1C(=O)O[C@H]2[C@H]1CC/C(COC(=O)c1cn(C)c3ccccc13)=C\CC[C@@]1(C)O[C@@H]21`, for which the GI50 is 0.446 µM and the TGI came to 1.99 µM. Taken in the same sequence, the figures for `CN(C)C(=S)/N=c1\ssc(=S)n1Cc1cccs1` were 4.07 µM and above 100 µM. The matching figures for `COc1ccc(C(C#N)=C2C=CC(=NO)C=C2)cc1`: 0.833 µM and 4.56 µM.

With `O=C(Nc1ccc2ncnc(Nc3ccc(Oc4cccc(F)c4)c(Cl)c3)c2c1)c1ccc(CN2CCOCC2)cc1`, the GI50 was 1.5 µM and the TGI was determined as 6.57 µM. For `COc1cc(OC)c(/C=C/C(=O)c2ccc(Nc3ncnc4ccccc34)cc2)c(OC)c1`, the GI50 is 0.306 µM and the TGI turned out to be 1.55 µM.

In the case of `CCN1C(=O)N(CC)C2SC(N/N=C/c3ccccc3F)=NC21` (centres undefined), the GI50 is 0.296 µM and the TGI turned out to be 24.7 µM. Taken in the same sequence, the figures for `O=C1Nc2ccccc2/C1=C\c1cccc(/C=C2/C(=O)Nc3ccccc32)n1` were 0.336 µM and 1.38 µM. Taken in the same sequence, the figures for `COc1cccc(-n2ncc3c(N/N=C/c4ccc(C)cc4)ncnc32)c1` were above 25 µM and above 25 µM.

In the case of `COC12C=C/C(=C(/C(=O)OCCSc3ccnn3C)C(=O)CCCCCCCCC3(OC)C=C/C(=C(/C(=O)OCCSc4ccnn4C)C(=O)CCCCCCCC1)O3)O2`, the GI50 is 0.951 µM and the TGI stood at 4.13 µM. Regarding `CC(=O)O[C@@]12CO[C@@H]1C[C@H](O)[C@@]1(C)C(=O)[C@H](O)C3=C(C)[C@@H](OC(=O)[C@H](O)[C@@H](NC(=O)OC(C)(C)C)c4ccccc4)C[C@@](O)([C@@H](OC(=O)c4ccccc4)C12)C3(C)C` (some centres undefined), the GI50 was below 0.005 µM. For `Cc1c2oc3c(C)ccc(C(=O)OC(C)C4NC(=O)C(C(C)C)N(C)C(=O)CN(C)C(=O)C5CCCN5C(=O)C(C(C)C)NC4=O)c3nc-2c(C(=O)OC(C)C2NC(=O)C(C(C)C)N(C)C(=O)CN(C)C(=O)C3CCCN3C(=O)C(C(C)C)NC2=O)c(N)c1=O` (centres undefined) (I: cyclo([Sar][NMeV]TVP) / II: cyclo([Sar][NMeV]TVP); linker I:3-II:3 via Actinocin(9to1); configuration not given here), the GI50 is below 0.01 µM and the TGI amounted to 0.0152 µM.

For `CC(=Nc1ccccc1)C1=C(O)C(Cc2cccc(F)c2)NC1=O` (centres undefined), the GI50 is 0.0364 µM and the TGI came to 62 µM. Take `CN(C)C[C@H]1CCn2c(c(C3=C(c4cn(C)c5ccccc45)C(=O)NC3=O)c3ccccc32)C1`: the GI50 was 3.85 µM and the TGI came to 7.86 µM.

`N#Cc1cnc2ccc(-c3cnc4n[nH]nc4c3)cc2c1N1CCc2cc(F)c(Cl)cc21`: the GI50 was 1.99 µM and the TGI is 10.7 µM. The matching figures for `Clc1ccccc1[C@@H]1C[C@@H]2Cc3cc(Br)c4ccccc4c3N1O2`: 1.81 µM and 5.67 µM. `O=C1/C(=C/c2ccc(F)c(F)c2)CN(C(=O)C(Cl)Cl)C/C1=C\c1ccc(F)c(F)c1`: the GI50 is 0.158 µM and the TGI came to 0.352 µM. The matching figures for `COc1cc(-c2nn(-c3cccc(NC(=O)NCCNS(=O)(=O)c4ccc(Cl)cc4)c3)cc2-c2ccncc2)ccc1Cl`: 0.332 µM and 1.67 µM. The matching figures for `CC(C)(C)Nc1nc2c(OCCc3ccccc3)cccn2c1-c1ccc(Cl)cc1`: 16.9 µM and 45.3 µM.

Consider `Nc1ncnc2c1c(-c1ccc(Oc3ccccc3)cc1)nn2C[C@H]1SSC[C@@H]1O`, for which the GI50 was 0.351 µM and the TGI was found to be 1.63 µM.

With `O=C1NCN(c2ccccc2)C12CCN(CCCC(c1ccc(F)cc1)c1ccc(F)cc1)CC2`, the GI50 was 1.77 µM and the TGI worked out at 4.37 µM. Take `COc1ccc(-c2nsc3c2NC(=O)CC3c2ccc3c(c2)OCCO3)cc1` (centres undefined): the GI50 was 0.328 µM and the TGI was above 100 µM.

`CCCCC[C@H]1CC=C2C(=O)C=C[C@@H]2CC=CCCCC(=O)O[C@@H](CCCCC)CC=C2C(=O)C=C[C@@H]2CC=CCCCC(=O)O[C@@H](CCCCC)CC=C2C(=O)C=C[C@@H]2CC=CCCCC(=O)O1`: the GI50 is 0.272 µM and the TGI worked out at 0.847 µM. The matching figures for `O=P(O)(O)OCC1OC(n2cnc3c(NCc4ccco4)ncnc32)C(O)C1O` (centres undefined): 2.27 µM and 7.66 µM. In the case of `Oc1[nH]c(N=C2N=c3ccccc3=N2)c2ccccc12`, the GI50 is 11.2 µM and the TGI is 31.2 µM.
